Each structure is given as a SMILES string.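 Following 48 hours of exposure in 96-well plates, responses at five concentrations were used to interpolate endpoints linearly. GI50 = concentration required for 50% inhibition of growth. Definition used: TGI = concentration required for complete inhibition of growth.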

Some test systems named below: SF-268 CNS; HOP-92 NSCLC; 786-0 renal; K-562 leukemia; SF-539 CNS; OVCAR-3 ovarian; MCF7 breast; OVCAR-4 ovarian.
Common to all, as to assay: DTP human tumour cell line panel, 48 h

On to `CC(=O)OCC1OC(OC2=C(CC=C(Cl)Cl)C(=O)c3ccccc3C2=O)C(OC(C)=O)C(OC(C)=O)C1OC(C)=O` (stereo not drawn), for which the GI50 with SF-268 CNS is 2.75 µM; in the experiment on HOP-92 NSCLC it was 0.222 µM; with 786-0 renal it was 16.6 µM; in the experiment with K-562 leukemia, 1.06 µM; with SF-539 CNS, 4.09 µM; in the experiment with OVCAR-3 ovarian it was 2.27 µM. For the same compound, the TGI was 8.03 µM with SF-268 CNS; 1.59 µM with HOP-92 NSCLC; 31.8 µM in the experiment on 786-0 renal; above 100 µM with K-562 leukemia; 14.6 µM in the experiment with SF-539 CNS; 4.88 µM with OVCAR-3 ovarian.

Consider `COc1cccc(C2NC(=S)NC(C)=C2C(=O)Nc2ccc(F)c(Cl)c2)c1` (stereo not drawn), for which the GI50 with SF-268 CNS was 28.7 µM; in the experiment on HOP-92 NSCLC, above 50 µM; with 786-0 renal, above 50 µM; in the experiment with MCF7 breast, 20.2 µM; in the experiment with K-562 leukemia it was 12.6 µM; with SF-539 CNS, above 50 µM. Also, the GI50 with OVCAR-3 ovarian was 41.3 µM. The TGI is above 50 µM in the experiment with SF-268 CNS; above 50 µM with HOP-92 NSCLC; above 50 µM with 786-0 renal; above 50 µM in the experiment on MCF7 breast; 49.2 µM in the experiment with K-562 leukemia; above 50 µM in the experiment with SF-539 CNS. The compound also yielded a TGI in the experiment on OVCAR-3 ovarian above 50 µM.

On to `Cc1ccccc1N=Nc1c(O)[nH]c2ccccc12`, for which the TGI with OVCAR-4 ovarian, with SF-268 CNS, in the experiment on 786-0 renal, in the experiment with MCF7 breast, with K-562 leukemia and with OVCAR-3 ovarian was above 100 µM in each case.

`COC(=O)[C@@]1(C)CC[C@]2(C)CC[C@]3(C)C4=CC=C5C(=CC(=O)C(O)=C5C)[C@]4(C)CC[C@@]3(C)[C@@H]2C1`: the GI50 in the experiment on OVCAR-4 ovarian is 0.153 µM; with SF-268 CNS it was 0.341 µM; with HOP-92 NSCLC it was 0.163 µM; in the experiment on 786-0 renal it was 0.172 µM; in the experiment with K-562 leukemia, 0.251 µM; in the experiment with SF-539 CNS, 0.26 µM. In addition, the GI50 with OVCAR-3 ovarian was 0.169 µM. Further, the TGI is 0.424 µM in the experiment with OVCAR-4 ovarian; 1.23 µM in the experiment with SF-268 CNS; 0.362 µM in the experiment on HOP-92 NSCLC; 0.315 µM in the experiment on 786-0 renal; 0.715 µM in the experiment with K-562 leukemia; 0.554 µM in the experiment on SF-539 CNS. The same compound registered a TGI in the experiment on OVCAR-3 ovarian of 0.325 µM.

On to `O=C1/C(=C\c2coc3ccccc3c2=O)c2ccccc2N1c1c(Cl)cccc1Cl`, for which the GI50 in the experiment on OVCAR-4 ovarian is 3.66 µM; in the experiment with SF-268 CNS it was 3.41 µM; in the experiment on 786-0 renal, 3.1 µM; in the experiment on MCF7 breast, 3.21 µM; in the experiment with K-562 leukemia, 2.08 µM; in the experiment with SF-539 CNS, 3.06 µM. In the experiment with OVCAR-3 ovarian, the GI50 was 2.71 µM. Further, the TGI is above 100 µM in the experiment on OVCAR-4 ovarian; above 100 µM with SF-268 CNS; 33.7 µM in the experiment on 786-0 renal; above 100 µM in the experiment with MCF7 breast; above 100 µM with K-562 leukemia; above 100 µM in the experiment with SF-539 CNS. In the experiment on OVCAR-3 ovarian, the TGI was 10.3 µM.

Consider `COc1ccc(Cc2cnc(NC(=O)c3sc4ccccc4c3Cl)s2)cc1`, for which the GI50 with OVCAR-4 ovarian is 2.82 µM; with SF-268 CNS, 1.26 µM; with HOP-92 NSCLC it was 5.26 µM; with 786-0 renal, 0.652 µM; in the experiment on MCF7 breast it was 0.355 µM; in the experiment on K-562 leukemia, 0.289 µM. Moreover, the GI50 in the experiment with SF-539 CNS was 0.236 µM. The total growth inhibition concentration (TGI) in the experiment on OVCAR-4 ovarian, in the experiment on SF-268 CNS, in the experiment with HOP-92 NSCLC, with 786-0 renal, in the experiment with MCF7 breast and with K-562 leukemia was above 100 µM in each case. In the experiment on SF-539 CNS, the TGI was 0.674 µM.

As for `COc1ccc(/C=C/c2cc(N3CCOCC3)c3cc(F)c(F)cc3n2)cc1OC`, the GI50 with OVCAR-4 ovarian is 0.253 µM; in the experiment with SF-268 CNS, 0.775 µM; with HOP-92 NSCLC it was 1.36 µM; in the experiment on 786-0 renal, 0.6 µM; with MCF7 breast, 0.389 µM; in the experiment with SF-539 CNS it was 0.913 µM. For the same compound, in the experiment on OVCAR-3 ovarian, the GI50 was 0.351 µM. The concentration for total growth inhibition (TGI) in the experiment on OVCAR-4 ovarian amounted to 2.04 µM; in the experiment with SF-268 CNS it was 16.5 µM; in the experiment with HOP-92 NSCLC it was 6.53 µM; in the experiment with 786-0 renal it was 3.8 µM; in the experiment with MCF7 breast, 9.48 µM; in the experiment with SF-539 CNS, 4.29 µM. This compound also registered a total growth inhibition concentration (TGI) in the experiment on OVCAR-3 ovarian of 2.26 µM.

In the case of `CN(c1ccccc1)C1C(=O)N(c2ccccc2)C1/C=C/c1ccccc1` (stereo not drawn), the TGI in the experiment on SF-268 CNS, in the experiment with HOP-92 NSCLC, in the experiment with 786-0 renal, in the experiment on SF-539 CNS and in the experiment on OVCAR-3 ovarian was above 100 µM throughout.

As to `CNC(C)C(=O)N[C@H](C(=O)N1CCC[C@@H]1CN(CCc1ccccc1)C(=O)C(F)(F)F)[C@H](C)OCC#CC#CCO[C@H](C)[C@H](NC(=O)[C@H](C)NC)C(=O)N1CCC[C@H]1CN(CCc1ccccc1)C(=O)C(F)(F)F` (stereo partly drawn), the GI50 with SF-268 CNS is 1.94 µM; with HOP-92 NSCLC, 0.373 µM; in the experiment with 786-0 renal, 1.65 µM; in the experiment on MCF7 breast, 0.239 µM; in the experiment on K-562 leukemia it was 0.366 µM; in the experiment with SF-539 CNS it was below 0.01 µM. Besides, the GI50 in the experiment on OVCAR-3 ovarian is 1.42 µM. The total growth inhibition concentration (TGI) amounted to 3.57 µM in the experiment on SF-268 CNS; 1.61 µM with HOP-92 NSCLC; 3.25 µM in the experiment with 786-0 renal; 1.76 µM in the experiment with MCF7 breast; 1.49 µM in the experiment with K-562 leukemia; 0.199 µM with SF-539 CNS. This compound registered a TGI in the experiment on OVCAR-3 ovarian of 2.86 µM.

For the compound `O=C(NNC(=O)c1ccncc1)c1ccncc1`, the TGI in the experiment on OVCAR-4 ovarian, in the experiment with SF-268 CNS, with HOP-92 NSCLC, with 786-0 renal, in the experiment with MCF7 breast and in the experiment on K-562 leukemia was above 100 µM each time. In addition, the total growth inhibition concentration (TGI) in the experiment with OVCAR-3 ovarian is above 100 µM.

With `O=C(c1cccs1)c1c(C(F)(F)F)n([O-])c2ccc(F)cc2[n+]1=O`, the GI50 in the experiment on OVCAR-4 ovarian is 1.41 µM; with HOP-92 NSCLC, 0.914 µM; in the experiment with 786-0 renal, 1.32 µM; in the experiment on MCF7 breast, 0.454 µM; in the experiment on K-562 leukemia it was 0.0904 µM; in the experiment with SF-539 CNS it was 1.67 µM. In the experiment with OVCAR-3 ovarian, the GI50 was 0.793 µM. For the same compound, the TGI was determined as 2.75 µM with OVCAR-4 ovarian; 2.48 µM in the experiment on HOP-92 NSCLC; 2.74 µM in the experiment on 786-0 renal; 3.12 µM in the experiment on MCF7 breast; 0.27 µM in the experiment on K-562 leukemia; 3.47 µM in the experiment with SF-539 CNS. The same compound yielded a TGI with OVCAR-3 ovarian of 2.35 µM.

The values are drawn from PubChem BioAssay (NCI).
